Tested on: adult patients with essential tremor
Experiment: Example 16: accelerometer-based (Kinesia ONE) TETRAS upper limb score
Type: in vivo, human
Text: Accelerometer (Kinesia ONE) TETRAS assessments were generally consistent with those conducted at the clinic. Accelerometer upper limb score values are summarized for Part A, the open-label titration phase of Part B, and the randomized withdrawal phase of Part B in Table 37, Table 38, and Table 39, respectively

[1] = Part B Open-Label Titration (N = 17), Day 42, Post - dose
[2] = Part B Open-Label Titration (N = 17), Day 42, Pre - dose
[3] = Part B Open-Label Titration, pre-dose baseline upper limb scores ≥10 (N = 12), Day 1, Post - dose
[4] = Part B Open-Label Titration, pre-dose baseline upper limb scores ≥10 (N = 12), Day 7
[5] = Part B Open-Label Titration, pre-dose baseline upper limb scores ≥10 (N = 12), Day 21
[6] = Part B Open-Label Titration, pre-dose baseline upper limb scores ≥10 (N = 12), Day 42, Post - dose
[7] = Part B Open-Label Titration, pre-dose baseline upper limb scores ≥10 (N = 12), Day 42, Pre - dose
[8] = Part B Randomized Withdrawal, Formula (I) group (N = 6), Day 1, Post - dose
[9] = Part B Randomized Withdrawal, Formula (I) group (N = 6), Day 7
[10] = Part B Randomized Withdrawal, Formula (I) group (N = 6), Day 21
[11] = Part B Randomized Withdrawal, Formula (I) group (N = 6), Day 42, Post - dose
[12] = Part B Randomized Withdrawal, Formula (I) group (N = 6), Day 42, Pre - dose
[13] = Part B Randomized Withdrawal, Formula (I) group (N = 6), Day 42 Post - dose (Randomization Baseline)
[14] = Part B Randomized Withdrawal, Formula (I) group (N = 6), Day 56
[15] = Part B Randomized Withdrawal, Formula (I) group (N = 6), Day 70
[16] = Part B Randomized Withdrawal, Day 56
[17] = Part B Randomized Withdrawal, Day 70

SMILES: CC(C)(C)NC(=O)CN1CCC(CNC(=O)c2cc(F)cc(Cl)c2)CC1 [compound of formula (I), N-((1-(2-(tert-butylamino)-2-oxoethyl)piperidin-4-yl)methyl)-3-chloro-5-fluorobenzamide]
- Percentage Change from Baseline in Tremor Amplitude, Median (Part B Open-Label Titration (N = 17), Day 21): −17.46%
- Accelerometer-Based Upper Limb Score, Change from Baseline, LS Mean (SE) [1]: −1.798 (0.4511)
- Accelerometer-Based Upper Limb Score, Change from Baseline, Mean (SD) [1]: −1.73 (2.009)
- Accelerometer-Based Upper Limb Score, Change from Baseline, Median [1]: −2.40
- Accelerometer-Based Upper Limb Score, observed, Mean (SD) [1]: 9.44 (2.857)
- Accelerometer-Based Upper Limb Score, observed, Median [1]: 8.60
- LS Mean Percentage Change in Tremor Amplitude [1]: −29.2%
- Percentage Change from Baseline in Tremor Amplitude, Mean (SD) [1]: −24.06 (27.567) %
- Percentage Change from Baseline in Tremor Amplitude, Median [1]: −36.90%
- Accelerometer-Based Upper Limb Score, Change from Baseline, LS Mean (SE) [2]: −1.766 (0.5175)
- Accelerometer-Based Upper Limb Score, Change from Baseline, Mean (SD) [2]: −1.70 (1.829)
- Accelerometer-Based Upper Limb Score, Change from Baseline, Median [2]: −2.00
- Accelerometer-Based Upper Limb Score, observed, Mean (SD) [2]: 9.48 (3.369)
- Accelerometer-Based Upper Limb Score, observed, Median [2]: 9.65
- LS Mean Percentage Change in Tremor Amplitude [2]: −28.7%
- Percentage Change from Baseline in Tremor Amplitude, Mean (SD) [2]: −24.79 (26.969) %
- Percentage Change from Baseline in Tremor Amplitude, Median [2]: −31.87%
- Accelerometer-Based Upper Limb Score, Change from Baseline, LS Mean (SE) [3]: −0.764 (0.4030)
- Accelerometer-Based Upper Limb Score, Change from Baseline, Mean (SD) [3]: −0.75 (1.696)
- Accelerometer-Based Upper Limb Score, Change from Baseline, Median [3]: −0.93
- Accelerometer-Based Upper Limb Score, observed, Mean (SD) [3]: 11.00 (2.303)
- Accelerometer-Based Upper Limb Score, observed, Median [3]: 10.95
- LS Mean Percentage Change in Tremor Amplitude [3]: −13.6%
- Percentage Change from Baseline in Tremor Amplitude, Mean (SD) [3]: −11.30 (25.126) %
- Percentage Change from Baseline in Tremor Amplitude, Median [3]: −16.10%
- Accelerometer-Based Upper Limb Score, Change from Baseline, LS Mean (SE) [4]: −1.677 (0.4345)
- Accelerometer-Based Upper Limb Score, Change from Baseline, Mean (SD) [4]: −2.03 (1.939)
- Accelerometer-Based Upper Limb Score, Change from Baseline, Median [4]: −2.05
- Accelerometer-Based Upper Limb Score, observed, Mean (SD) [4]: 9.96 (3.151)
- Accelerometer-Based Upper Limb Score, observed, Median [4]: 11.10
- LS Mean Percentage Change in Tremor Amplitude [4]: −27.5%
- Percentage Change from Baseline in Tremor Amplitude, Mean (SD) [4]: −28.60 (24.257) %
- Percentage Change from Baseline in Tremor Amplitude, Median [4]: −32.52%
- Accelerometer-Based Upper Limb Score, Change from Baseline, LS Mean (SE) [5]: −2.295 (0.6539)
- Accelerometer-Based Upper Limb Score, Change from Baseline, Mean (SD) [5]: −2.04 (2.248)
- Accelerometer-Based Upper Limb Score, Change from Baseline, Median [5]: −1.48
- Accelerometer-Based Upper Limb Score, observed, Mean (SD) [5]: 9.91 (2.999)
- Accelerometer-Based Upper Limb Score, observed, Median [5]: 10.98
- LS Mean Percentage Change in Tremor Amplitude [5]: −35.6%
- Percentage Change from Baseline in Tremor Amplitude, Mean (SD) [5]: −27.37 (27.794) %
- Percentage Change from Baseline in Tremor Amplitude, Median [5]: −24.34%
- Accelerometer-Based Upper Limb Score, Change from Baseline, LS Mean (SE) [6]: −1.818 (0.5342)
- Accelerometer-Based Upper Limb Score, Change from Baseline, Mean (SD) [6]: −1.87 (2.027)
- Accelerometer-Based Upper Limb Score, Change from Baseline, Median [6]: −2.40
- Accelerometer-Based Upper Limb Score, observed, Mean (SD) [6]: 9.93 (2.878)
- Accelerometer-Based Upper Limb Score, observed, Median [6]: 10.40
- LS Mean Percentage Change in Tremor Amplitude [6]: −29.4%
- Percentage Change from Baseline in Tremor Amplitude, Mean (SD) [6]: −26.06 (27.100) %
- Percentage Change from Baseline in Tremor Amplitude, Median [6]: −36.90%
- Accelerometer-Based Upper Limb Score, Change from Baseline, LS Mean (SE) [7]: −1.559 (0.5803)
- Accelerometer-Based Upper Limb Score, Change from Baseline, Mean (SD) [7]: −1.57 (1.914)
- Accelerometer-Based Upper Limb Score, Change from Baseline, Median [7]: −2.00
- Accelerometer-Based Upper Limb Score, observed, Mean (SD) [7]: 10.23 (3.244)
- Accelerometer-Based Upper Limb Score, observed, Median [7]: 11.15
- LS Mean Percentage Change in Tremor Amplitude [7]: −25.9%
- Percentage Change from Baseline in Tremor Amplitude, Mean (SD) [7]: −22.96 (28.661) %
- Percentage Change from Baseline in Tremor Amplitude, Median [7]: −31.87%
- Accelerometer-Based Upper Limb Score, Change from Baseline, Mean (SD) [8]: −0.08 (1.710)
- Accelerometer-Based Upper Limb Score, Change from Baseline, Median [8]: −0.78
- Accelerometer-Based Upper Limb Score, observed, Mean (SD) [8]: 9.98 (2.321)
- Accelerometer-Based Upper Limb Score, observed, Median [8]: 10.78
- Percentage Change from Baseline in Tremor Amplitude, Mean (SD) [8]: −2.18 (27.539) %
- Percentage Change from Baseline in Tremor Amplitude, Median [8]: −13.59%
- Accelerometer-Based Upper Limb Score, Change from Baseline, Mean (SD) [9]: −0.79 (1.542)
- Accelerometer-Based Upper Limb Score, Change from Baseline, Median [9]: −1.20
- Accelerometer-Based Upper Limb Score, observed, Mean (SD) [9]: 9.55 (2.774)
- Accelerometer-Based Upper Limb Score, observed, Median [9]: 10.15
- Percentage Change from Baseline in Tremor Amplitude, Mean (SD) [9]: −12.59 (25.197) %
- Percentage Change from Baseline in Tremor Amplitude, Median [9]: −19.95%
- Accelerometer-Based Upper Limb Score, Change from Baseline, Mean (SD) [10]: −0.56 (1.273)
- Accelerometer-Based Upper Limb Score, Change from Baseline, Median [10]: −0.55
- Accelerometer-Based Upper Limb Score, observed, Mean (SD) [10]: 9.50 (2.760)
- Accelerometer-Based Upper Limb Score, observed, Median [10]: 9.88
- Percentage Change from Baseline in Tremor Amplitude, Mean (SD) [10]: −8.75 (21.102) %
- Percentage Change from Baseline in Tremor Amplitude, Median [10]: −9.68%
- Accelerometer-Based Upper Limb Score, Change from Baseline, Mean (SD) [11]: −0.68 (1.718)
- Accelerometer-Based Upper Limb Score, Change from Baseline, Median [11]: −0.23
- Percentage Change from Baseline in Tremor Amplitude, Mean (SD) [11]: −9.46 (26.746) %
- Percentage Change from Baseline in Tremor Amplitude, Median [11]: −3.87%
- Accelerometer-Based Upper Limb Score, Change from Baseline, Mean (SD) [12]: −0.73 (1.948)
- Accelerometer-Based Upper Limb Score, Change from Baseline, Median [12]: −0.98
- Accelerometer-Based Upper Limb Score, observed, Mean (SD) [12]: 9.33 (2.645)
- Accelerometer-Based Upper Limb Score, observed, Median [12]: 10.40
- Percentage Change from Baseline in Tremor Amplitude, Mean (SD) [12]: −10.75 (29.656) %
- Percentage Change from Baseline in Tremor Amplitude, Median [12]: −17.06%
- Accelerometer-Based Upper Limb Score, observed, Mean (SD) [13]: 9.38 (2.242)
- Accelerometer-Based Upper Limb Score, observed, Median [13]: 9.50
- Accelerometer-Based Upper Limb Score, Change from Baseline, Mean (SD) [14]: −0.55 (3.145)
- Accelerometer-Based Upper Limb Score, Change from Baseline, Median [14]: 0.62
- Accelerometer-Based Upper Limb Score, Change from Randomization, LS Mean (SE) [14]: 0.120 (0.9528)
- Accelerometer-Based Upper Limb Score, Change from Randomization, Mean (SD) [14]: 0.13 (1.495)
- Accelerometer-Based Upper Limb Score, Change from Randomization, Median [14]: 0.70
- Accelerometer-Based Upper Limb Score, observed, Mean (SD) [14]: 9.51 (2.810)
- Accelerometer-Based Upper Limb Score, observed, Median [14]: 9.75
- LS Mean Percentage Change in Tremor Amplitude (from Randomization) [14]: 2.3%
- Percentage Change from Baseline in Tremor Amplitude, Mean (SD) [14]: −4.53 (43.487) %
- Percentage Change from Baseline in Tremor Amplitude, Median [14]: 9.78%
- Percentage Change from Randomization in Tremor Amplitude, Mean (SD) [14]: 2.74 (24.404) %
- Percentage Change from Randomization in Tremor Amplitude, Median [14]: 12.37%
- Accelerometer-Based Upper Limb Score, Change from Baseline, Mean (SD) [15]: 1.30 (2.932)
- Accelerometer-Based Upper Limb Score, Change from Baseline, Median [15]: 0.35
- Accelerometer-Based Upper Limb Score, Change from Randomization, LS Mean (SE) [15]: 2.482 (1.0202)
- Accelerometer-Based Upper Limb Score, Change from Randomization, Mean (SD) [15]: 2.34 (2.050)
- Accelerometer-Based Upper Limb Score, Change from Randomization, Median [15]: 1.85
- Accelerometer-Based Upper Limb Score, observed, Mean (SD) [15]: 11.33 (2.653)
- Accelerometer-Based Upper Limb Score, observed, Median [15]: 12.40
- LS Mean Percentage Change in Tremor Amplitude (from Randomization) [15]: 37.9%
- Percentage Change from Baseline in Tremor Amplitude, Mean (SD) [15]: 14.62 (35.044) %
- Percentage Change from Baseline in Tremor Amplitude, Median [15]: 6.50%
- Percentage Change from Randomization in Tremor Amplitude, Mean (SD) [15]: 32.71 (20.891) %
- Percentage Change from Randomization in Tremor Amplitude, Median [15]: 29.88%
- LS Mean (SE) for Difference (Formula (I) - Placebo), change from Randomization in accelerometer-based upper limb score [16]: −2.227 (1.4135)
- LS Mean Percentage Change Difference (Formula (I) - Placebo) [16]: −34.0%
- LS Mean (SE) for Difference (Formula (I) - Placebo), change from Randomization in accelerometer-based upper limb score [17]: −0.356 (1.4667)
- LS Mean Percentage Change Difference (Formula (I) - Placebo) [17]: −4.1%

Reference: patent US20250295646A1, “METHODS OF USE OF T-TYPE CALCIUM CHANNEL MODULATORS” (Praxis Precision Medicines, Inc., priority 2022, published 2025)
